This is an account of results in patent publication US12617781B2, “Utidelone semi-hydrated single crystal and preparation method therefor and use thereof” (Beijing Biostar Pharmaceuticals Co., Ltd., priority 2020, dated 2026).

Data set [1] in a line: PK study on intravenous administration of the pharmaceutical composition containing Utidelone semihydrate crystal. It counts as in vivo. To be noted: for MRT / AUC(0-t) / half-life: human, in vivo, iv, 40 mg/m2, intravenous infusion 40 mg/m2 once a day for 5 days; for AUC(0-t): read-out: AUC(0-24); for half-life: read-out: elimination half-life t½ in plasma (converted); for apparent volume of distribution / plasma clearance CL: intravenous infusion 40 mg/m2 once a day for 5 days. How it is done:
Utidelone injection was prepared with Utidelone crystals (crystal A or mixed crystals containing crystal A) and 50% v/v absolute ethanol (USP), 30% v/v propylene glycol (USP) and 20% v/v polyoxyl castor oil 1 (Cremophor EL or ELP) as a solubilizer. The injection has low water content and high stability.

Data set [2] is described as follows: Stability in 0.1N hydrochloric acid solution. The data set is classed as physicochemical. How it is done:
The semihydrate crystal obtained in Example 1 was placed in a 0.1N hydrochloric acid solution, and the crystal was stable: no obvious degradation impurities were produced. Solubility >5 mg/ml.

A short description of data set [3]: Stability under high humidity. It counts as physicochemical. From the text:
The semihydrate crystal obtained in Example 1 was placed under the condition of relative humidity of 90%±5% for 10 days, and samples were taken on the 5th and 10th days.
Utidelone anhydrous crystal was placed under the condition of relative humidity of 90±5% for 10 days. Samples were taken on the 5th and 10th days. The moisture content increased and the moisture absorption was obvious.

Data set [4] is described as follows: Stability test of the semihydrate crystal under storage conditions (temperature). The data set is classed as physicochemical. The method, then: Stability test: The stability test of the semihydrate crystal was carried out under the following conditions:
Storage condition 1: 2-25° C., stored in a sealed state for more than 3 years, confirmed by NMR, HPLC, X-ray powder diffraction and infrared spectrum analysis, etc., the semihydrate crystal was stable (no changes in content, no impurities due to degradation, no changes in appearance and physicochemical properties).
Storage Condition 2: 25° C., 60%±10% RH, unsealed storage for more than 3 days, after the sample was continued to be stored at 25° C. for 1 year, it was confirmed by NMR, HPLC, X-ray powder diffraction and infrared spectrum analysis, etc., the semihydrate crystal was stable (no changes in content, no impurities due to degradation, no changes in appearance and physicochemical properties).
Storage condition 3: Stored in a sealed state at 40° C. for more than 2 years. It was confirmed by NMR, HPLC, X-ray powder diffraction and infrared spectrum analysis, etc., the semihydrate crystal was stable (no changes in content, no impurities due to degradation, no changes in appearance and physicochemical properties).
Storage Condition 4: Stored at 60° C. for more than 1 year. It was confirmed by NMR, HPLC, X-ray powder diffraction and infrared spectrum analysis, etc., the semihydrate crystal was stable (no changes in content, no impurities due to degradation, no changes in appearance and physicochemical properties).

Data set [5] is described as follows: Stability under strong light (light box). The data set is classed as physicochemical. To be noted: 4500 lx±500 lx, 10 days. From the text:
The semihydrate crystal obtained in Example 1 was placed in a light box, and placed for 10 days under the condition that the light intensity was 4500 lx±500 lx.

The next data set can be described thus: Solubility test. It counts as physicochemical. To be noted: thermodynamic from solid.
[6] abbreviates: high humidity conditions (summary statement).
The mark [7] stands for this setting: relative humidity 90%±5%, 10 days, samples on 5th and 10th days.

Like-named read-outs stand apart in the source and are kept apart here. Some results are limits rather than exact numbers.

As for `C/C1=C/C[C@@H](/C(C)=C/c2csc(C)n2)OC(=O)C[C@H](O)C(C)(C)C(=O)[C@H](C)[C@@H](O)[C@@H](C)CCC1` [Utidelone], in data set [1] (40 mg/m2 once a day for 5 days, first vs last administration), the “Accumulation in the body after continuous administration” value is recorded as “did not accumulate”. For the same molecule, in data set [1] (1st day), the MRT – broadly, a mean duration of stay, worked out from the concentration-time curve – was determined as 4.5 ± 0.8 h; the AUC(0-t) stood at 4180 ± 1010 ng·h/mL; the half-life (commonly the time in which the quantity being followed falls by half) was 8.6 ± 0.1 h; the “apparent volume of distribution” value worked out at 114.0±35.2 L/m2. Moreover, the “plasma clearance CL” value in data set [1] (1st day) is listed as 9.2±2.7 L/h/m2. Also, in data set [1] (5th day), the MRT is 5.1 ± 0.7 h, the AUC(0-t) amounted to 4550 ± 1630 ng·h/mL, the half-life was 8.2 ± 1.1 h and the “apparent volume of distribution” value came to 109.1±62.6 L/m2. In addition, in data set [1] (5th day), the “plasma clearance CL” value was found to be 8.9±3.9 L/h/m2.
For `C/C1=C/C[C@@H](/C(C)=C/c2csc(C)n2)OC(=O)C[C@H](O)C(C)(C)C(=O)[C@H](C)[C@@H](O)[C@@H](C)CCC1` [semihydrate crystal], the “Stability (degradation impurities)” value in data set [2] was “stable”. Besides, the Stability result in data set [3] (setting [6]) was “very stable”. In data set [3] (setting [6]), the Water content entry is given as “does not change significantly”. In addition, the Moisture content result in data set [3] (setting [7]) and in data set [5] was “basically unchanged” each time. For the same molecule, the “Stability (content, degradation impurities, appearance, physicochemical properties)” value was “stable” in data set [3] (setting [7]); “stable” in data set [4] (Storage condition 1: 2-25° C., sealed, more than 3 years, NMR, HPLC, XRPD, IR); “stable” in data set [4] (Storage condition 2: 25° C., 60%±10% RH, unsealed more than 3 days, then 25° C. for 1 year); “stable” in data set [4] (Storage condition 3: sealed, 40° C., more than 2 years); “stable” in data set [4] (Storage condition 4: 60° C., more than 1 year); “stable” in data set [5]. Moreover, the “Storage time without changes in substance” value in data set [4] (40° C.) is recorded as “more than 3 years”; in data set [4] (60° C.), “more than 1 year”. Further, the solubility – broadly, the dissolved amount per volume that the medium holds – in the data set “Solubility test” (0.1N hydrochloric acid solution, simulated gastric fluid) was > 5 mg/mL; in the data set “Solubility test” (50% ethanol, 30% propylene glycol, 20% castor oil, organic solvent or mixture), > 100 mg/mL; in the data set “Solubility test” (DMSO, organic solvent or mixture), > 50 mg/mL; in “Solubility test” (benzyl alcohol, organic solvent or mixture), > 50 mg/mL; in the data set “Solubility test” (ethanol, organic solvent or mixture) it was > 50 mg/mL; in “Solubility test” (methanol, organic solvent or mixture) it was > 50 mg/mL. Further, in the data set “Solubility test” (propylene glycol, organic solvent or mixture), the solubility is > 50 mg/mL.
`C/C1=C/C[C@@H](/C(C)=C/c2csc(C)n2)OC(=O)C[C@H](O)C(C)(C)C(=O)[C@H](C)[C@@H](O)[C@@H](C)CCC1` [Utidelone anhydrous crystal]: the Moisture content result in data set [3] (setting [7]) is reported as “increased”. Also, the Moisture absorption entry in data set [3] (relative humidity 90±5%, 10 days, samples on 5th and 10th days) is listed as “obvious”.
